The target of the first assay is T1, human PAH with the R408W mutation (A375 R408W cells) (Homo sapiens, UniProt P00439, R408W).
T1 construct: expressed in transfected cells
T1 sequence (P00439 1-452 R408W): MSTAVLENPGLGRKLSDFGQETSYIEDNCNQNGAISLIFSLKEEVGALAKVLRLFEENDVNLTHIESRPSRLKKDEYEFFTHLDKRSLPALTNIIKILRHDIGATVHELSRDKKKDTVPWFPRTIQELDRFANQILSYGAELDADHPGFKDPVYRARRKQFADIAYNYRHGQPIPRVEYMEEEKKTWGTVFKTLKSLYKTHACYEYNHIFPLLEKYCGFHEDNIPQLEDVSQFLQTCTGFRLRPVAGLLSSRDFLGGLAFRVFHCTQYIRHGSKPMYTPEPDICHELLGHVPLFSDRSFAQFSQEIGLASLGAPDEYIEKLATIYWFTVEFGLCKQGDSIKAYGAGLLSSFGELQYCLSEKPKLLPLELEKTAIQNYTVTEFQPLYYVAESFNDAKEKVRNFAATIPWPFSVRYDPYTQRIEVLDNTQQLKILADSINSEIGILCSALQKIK
Put plainly: Cell Based Phenylalanine Flux Assay. Particulars: A375 R408W cells; 24 hrs with compound, then 20 μM sepiapterin and 800 μM 13C9,15N-Phenylalanine for 4 hours; 13C-Tyrosine by LC-MS; average where tested multiple times. An outline of the steps:
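LC-MS quantitation of 13C-tyrosine in media gave AC50 values. Stable A375 R408W PAH cells were preincubated 24 h with compound, then fed 800 μM labelled Phe plus 20 μM sepiapterin for 4 h. Dose curves were 10-point, tested in duplicate, averaged over repeat runs.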
On to `O=C(c1oc(-c2cnccn2)nc1C(F)F)N1CCc2[nH]cnc2[C@@H]1c1nc2cc(F)ccc2o1` [Example 528, (R)-(4-(difluoromethyl)-2-(pyrazin-2-yl)oxazol-5-yl)(4-(5-fluorobenzo[d]oxazol-2-yl)-6,7-dihydro-1H-imidazo[4,5-c]pyridin-5(4H)-yl)methanone], for which the AC50 (usually the concentration giving half of the maximal activity seen) was in the range of 1 to 5 µM. Still for that read-out and setting: in the case of `CN(C)Cc1cn2ncc(C(=O)N3CCc4[nH]cnc4[C@@H]3c3nc4cc(F)ccc4o3)c2cc1Cl` [Example 204, (R)-(5-chloro-6-((dimethylamino)methyl)pyrazolo[1,5-a]pyridin-3-yl)(4-(5-fluorobenzo[d]oxazol-2-yl)-6,7-dihydro-1H-imidazo[4,5-c]pyridin-5(4H)-yl)methanonee] it was 1 to 5 µM. Take `Cc1ccc2oc([C@@H]3c4nc[nH]c4CCN3C(=O)c3ncc(Cl)s3)nc2c1` [Example 1, (S)-(5-chlorothiazol-2-yl)(4-(5-methylbenzo[d]oxazol-2-yl)-6,7-dihydro-1H-imidazo[4,5-c]pyridin-5(4H)-yl)methanone]: the AC50 lay in the range of 0.5 to 1 µM.

In the case of `O=C(c1ccnn1C(F)(F)F)N1CCc2[nH]cnc2[C@H]1c1nc2cccc(F)c2o1` [Example 289, (S)-(4-(7-fluorobenzo[d]oxazol-2-yl)-6,7-dihydro-1H-imidazo[4,5-c]pyridin-5(4H)-yl)(1-(trifluoromethyl)-1H-pyrazol-5-yl)methanone], the AC50 lay within 0.5 to 1 µM.

As for `CC(C)(C)c1nc(C(F)F)c(C(=O)N2CCc3[nH]cnc3[C@H]2c2nc3cc(F)ccc3o2)o1` [Example 753, (S)-(2-(tert-butyl)-4-(difluoromethyl)oxazol-5-yl)(4-(5-fluorobenzo[d]oxazol-2-yl)-6,7-dihydro-1H-imidazo[4,5-c]pyridin-5(4H)-yl)methanone], the AC50 was at most 0.5 µM. The same measure, in the same setting: in the case of `Cc1nc(-c2cnn(C)c2)oc1C(=O)N1CCc2[nH]cnc2[C@H]1c1nc2cccc(F)c2o1` [Example 596, (S)-(4-(7-fluorobenzo[d]oxazol-2-yl)-6,7-dihydro-1H-imidazo[4,5-c]pyridin-5(4H)-yl)(4-methyl-2-(1-methyl-1H-pyrazol-4-yl)oxazol-5-yl)methanone] it was at most 0.5 µM. The same measure, in the same setting: to `Cc1ccc2oc([C@@H]3c4nc[nH]c4CCN3C(=O)c3oc(-c4ccccn4)nc3C(F)F)nc2c1` [Example 737, (S)-(4-(difluoromethyl)-2-(pyridin-2-yl)oxazol-5-yl)(4-(5-methylbenzo[d]oxazol-2-yl)-6,7-dihydro-1H-imidazo[4,5-c]pyridin-5(4H)-yl)methanone] belongs at most 0.5 µM. With `O=C(c1oc(-c2ccccn2)nc1C(F)(F)F)N1CCc2[nH]cnc2[C@H]1c1nc2cc(F)ccc2o1` [Example 49, (S)-(4-(5-fluorobenzo[d]oxazol-2-yl)-6,7-dihydro-1H-imidazo[4,5-c]pyridin-5(4H)-yl)(2-(pyridin-2-yl)-4-(trifluoromethyl)oxazol-5-yl)methanone], the AC50 is at most 0.5 µM. Regarding `CC(C)(O)c1nc(C(F)F)c(C(=O)N2CCc3[nH]cnc3[C@@H]2c2nc3cc(OC(F)(F)F)ccc3o2)o1` [Example 352, (R)-(4-(difluoromethyl)-2-(2-hydroxypropan-2-yl)oxazol-5-yl)(4-(5-(trifluoromethoxy)benzo[d]oxazol-2-yl)-6,7-dihydro-1H-imidazo[4,5-c]pyridin-5(4H)-yl)methanone], the AC50 is 0.5 to 1 µM.

Turning to `O=C(c1nnc(-c2ccccn2)o1)N1CCc2[nH]cnc2[C@@H]1c1nc2ccc(F)c(F)c2o1` [Example 545, (R)-(4-(6,7-difluorobenzo[d]oxazol-2-yl)-6,7-dihydro-1H-imidazo[4,5-c]pyridin-5(4H)-yl)(5-(pyridin-2-yl)-1,3,4-oxadiazol-2-yl)methanone], the AC50 was 1 to 5 µM.

With `CC1CN(C(=O)c2ocnc2C(F)F)[C@H](c2nc3cccc(F)c3o2)c2nc[nH]c21` (single isomer, unassigned) [Example 803], the AC50 is at most 0.5 µM. As for `Cc1cccc2nc([C@@H]3c4nc[nH]c4CCN3C(=O)c3ccnn3C(F)F)oc12` [Example 919, (S)-(1-(difluoromethyl)-1H-pyrazol-5-yl)(4-(7-methylbenzo[d]oxazol-2-yl)-6,7-dihydro-1H-imidazo[4,5-c]pyridin-5(4H)-yl)methanone], the AC50 is at most 0.5 µM.

With `O=C(c1cnn2cc(N3CCN(C4CC4)CC3)ccc12)N1CCc2[nH]cnc2[C@H]1c1nc2cc(F)ccc2o1` [Example 133, (S)-(6-(4-cyclopropylpiperazin-1-yl)pyrazolo[1,5-a]pyridin-3-yl)(4-(5-fluorobenzo[d]oxazol-2-yl)-6,7-dihydro-1H-imidazo[4,5-c]pyridin-5(4H)-yl)methanone], the concentration at half-maximal activity (AC50) was 0.5 to 1 µM. The same measure, in the same setting: in the case of `O=C(c1ocnc1C(F)F)N1CCc2[nH]cnc2[C@@H]1c1nc2ccc(F)c(F)c2o1` [Example 306, (R)-(4-(6,7-difluorobenzo[d]oxazol-2-yl)-6,7-dihydro-1H-imidazo[4,5-c]pyridin-5(4H)-yl)(4-(difluoromethyl)oxazol-5-yl)methanone] it was 1 to 5 µM; in that of `O=C(c1ocnc1C(F)F)N1CCc2[nH]cnc2[C@H]1c1nc2cccc(F)c2o1` [Example 173, (S)-(4-(difluoromethyl)oxazol-5-yl)(4-(7-fluorobenzo[d]oxazol-2-yl)-6,7-dihydro-1H-imidazo[4,5-c]pyridin-5(4H)-yl)methanone], at most 0.5 µM. As to `O=C(c1ocnc1C(F)F)N1CCc2[nH]cnc2[C@@H]1c1nc2cccc(C(F)(F)F)c2o1` [Example 494, (R)-(4-(difluoromethyl)oxazol-5-yl)(4-(7-(trifluoromethyl)benzo[d]oxazol-2-yl)-6,7-dihydro-1H-imidazo[4,5-c]pyridin-5(4H)-yl)methanone], the AC50 was at most 0.5 µM. On to `Cc1ccc2nc([C@@H]3c4nc[nH]c4CCN3C(=O)c3nnc(-c4ccn(C)n4)o3)oc2c1` [Example 357, (S)-(5-(1-methyl-1H-pyrazol-3-yl)-1,3,4-oxadiazol-2-yl)(4-(6-methylbenzo[d]oxazol-2-yl)-6,7-dihydro-1H-imidazo[4,5-c]pyridin-5(4H)-yl)methanone], for which the AC50 fell in the range of 0.5 to 1 µM. As for `O=C(c1ccnn1C(F)F)N1CCc2[nH]cnc2[C@@H]1c1nc2c(F)cccc2o1` [Example 202, (R)-(1-(difluoromethyl)-1H-pyrazol-5-yl)(4-(4-fluorobenzo[d]oxazol-2-yl)-6,7-dihydro-1H-imidazo[4,5-c]pyridin-5(4H)-yl)methanone], the AC50 lay within 1 to 5 µM. Take `Cc1cccc2nc([C@H]3c4nc[nH]c4CCN3C(=O)c3ocnc3C(F)F)oc12` [Example 394, (R)-(4-(difluoromethyl)oxazol-5-yl)(4-(7-methylbenzo[d]oxazol-2-yl)-6,7-dihydro-1H-imidazo[4,5-c]pyridin-5(4H)-yl)methanone]: the AC50 fell in the range of 0.5 to 1 µM. On the same count and under the same terms, in the case of `O=C(c1nnc(-c2ncccc2F)o1)N1CCc2[nH]cnc2[C@H]1c1nc2ccccc2o1` [Example 833, (S)-(4-(benzo[d]oxazol-2-yl)-6,7-dihydro-1H-imidazo[4,5-c]pyridin-5(4H)-yl)(5-(3-fluoropyridin-2-yl)-1,3,4-oxadiazol-2-yl)methanone] it was at most 0.5 µM. On to `O=C(c1ocnc1C(F)F)N1CCc2[nH]cnc2[C@@H]1c1nc2cc(Br)ccc2o1` [Example 150, (R)-(4-(5-bromobenzo[d]oxazol-2-yl)-6,7-dihydro-1H-imidazo[4,5-c]pyridin-5(4H)-yl)(4-(difluoromethyl)oxazol-5-yl)methanone], for which the AC50 is at most 0.5 µM.

For the compound `Cn1nc(C(F)F)nc1C(=O)N1CCc2[nH]cnc2[C@H]1c1nc2ccccc2o1` [Example 561, (S)-(4-(benzo[d]oxazol-2-yl)-6,7-dihydro-1H-imidazo[4,5-c]pyridin-5(4H)-yl)(3-(difluoromethyl)-1-methyl-1H-1,2,4-triazol-5-yl)methanone], the AC50 was 0.5 to 1 µM. Still for that read-out and setting: in the case of `O=C(c1ocnc1C(F)F)N1CCc2[nH]cnc2[C@@H]1c1nc2cc(F)c(F)cc2o1` [Example 296, (R)-(4-(5,6-difluorobenzo[d]oxazol-2-yl)-6,7-dihydro-1H-imidazo[4,5-c]pyridin-5(4H)-yl)(4-(difluoromethyl)oxazol-5-yl)methanone] it was 1 to 5 µM.

The same assay, now with this note: A375 cells expressing R408W PAH; 24 hrs with compound, then 20 μM sepiapterin and 800 μM 13C9,15N-Phenylalanine for 4 hours; 13C-Tyrosine by LC-MS; average where tested multiple times.
With `CC(C)(O)c1cc(C(=O)N2CCc3[nH]cnc3C2c2nc3cc(F)ccc3o2)sn1` (stereo not drawn), the AC50 is at least 5 µM. For `O=C(c1cnn2cc(CN3CC(F)C3)ccc12)N1CCc2[nH]cnc2[C@@H]1c1nc2cc(F)ccc2o1` (single isomer, unassigned), the AC50 is at least 5 µM. Still for that read-out and setting: to `COCCCc1ccc2c(C(=O)N3CCc4[nH]cnc4C3c3nc4cc(F)ccc4o3)cnn2c1` (stereo not drawn) belongs at least 5 µM; to `Cc1nc(C(C)O)oc1C(=O)N1CCc2[nH]cnc2C1c1nc2ccc(F)cc2o1` (stereo not drawn), 1 to 5 µM; to `O=C(c1nnc(N2CCC(F)CC2)o1)N1CCc2[nH]cnc2C1c1nc2cc(F)ccc2o1` (stereo not drawn), 1 to 5 µM. The same measure, in the same setting: to `O=C(c1cnn2cc(N3CCC(O)CC3)ccc12)N1CCc2[nH]cnc2C1c1nc2ccccc2o1` (stereo not drawn) belongs 1 to 5 µM; to `O=C(CCc1ncco1)N1CCc2[nH]cnc2C1c1nc2ccc(F)cc2o1` (stereo not drawn), 1 to 5 µM.

For the origin of these results see patent US20250171437A1 (Agios Pharmaceuticals,Inc., priority 2022, published 2025).
